Here are results for five compounds from patent US10441562B2, “Aromatic farnesyl compound and application thereof” (INSTITUTE OF MICROBIOLOGY, CHINESE ACADEMY OF SCIENCES, priority 2015, dated 2019).

Like-named read-outs stand apart in the source and are kept apart here. Marks after values point to notes of the source that are not given here.

One test addresses T1, dipeptidyl peptidase-4 (Homo sapiens, UniProt P27487).
T1 construct: purchased
Put plainly: dipeptidyl peptidase-4 inhibitory activity test in vitro (DPP-4 inhibitor screening kit). It is filed as biochemical. The text has this: The above compounds are detected by DPP-4 inhibitor screening kit.

For another test, the target named is T2, α-glucosidase (Saccharomyces cerevisiae, UniProt P53341).
T2 construct: purchased Sigma Corporation G5003
T2 sequence (P53341 whole entry): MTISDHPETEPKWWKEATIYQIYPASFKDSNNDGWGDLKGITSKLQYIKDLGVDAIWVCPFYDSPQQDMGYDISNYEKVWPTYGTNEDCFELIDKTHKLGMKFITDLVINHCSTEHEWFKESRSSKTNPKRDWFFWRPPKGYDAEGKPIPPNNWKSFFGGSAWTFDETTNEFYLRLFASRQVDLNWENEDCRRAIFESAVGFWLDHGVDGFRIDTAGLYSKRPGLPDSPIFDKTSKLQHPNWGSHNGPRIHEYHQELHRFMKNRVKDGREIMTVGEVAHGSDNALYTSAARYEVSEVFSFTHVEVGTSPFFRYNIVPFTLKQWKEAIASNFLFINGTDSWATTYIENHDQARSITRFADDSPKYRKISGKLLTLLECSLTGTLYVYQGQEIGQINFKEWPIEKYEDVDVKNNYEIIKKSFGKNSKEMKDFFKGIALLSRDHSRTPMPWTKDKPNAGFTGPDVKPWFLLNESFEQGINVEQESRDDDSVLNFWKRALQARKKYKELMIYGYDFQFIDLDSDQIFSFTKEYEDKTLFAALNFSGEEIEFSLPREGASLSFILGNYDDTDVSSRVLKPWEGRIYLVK
Nature of the test: α-glucosidase inhibitory activity test in vitro. It is filed as biochemical. As to the method: Add 25 μL α-glucosidase water solution (0.2 U/mL) and 175 μL phosphate buffer (50 mM, pH 7.0) into 25 μL different concentration of the above test solutions. The mixed solution is standed for 10 min at room temperature, and then 25 μL 4-nitrophenyl-α-D-glucopyranoside water solution (2.5 mM) is added into the mixed solution. After the solution is incubated at 37 °C for 30 min and centrifuged at 5000 rpm for 5 minutes, 150 uL supernatant is added into 96-well plates and the absorbance is detected at 405 nm.
Blank group: the test solution is replaced by 25 μL phosphate buffer (50 mM, pH 7.0); blank control group: the test solution is replaced by 25 μL phosphate buffer (50 mM, pH 7.0), meanwhile α-glucosidase water solution is replaced by 25 μL phosphate buffer (50 mM, pH 7.0); sample control group: α-glucosidase water solution is replaced by 25 μL phosphate buffer (50 mM, pH 7.0).
(§1) Repeat each of the above experiment groups for 3 times, and then average the results.
IC50=[CL(IH−50)+CH(50−IL)]/(IH−IL) CL: low concentration value; CH: high concentration value; IH: inhibition rate in high concentration; IL: inhibition rate in low concentration

The target in the next test is T3, HMG-CoA reductase (Homo sapiens, UniProt P04035).
T3 sequence (P04035 426-888 limits assumed): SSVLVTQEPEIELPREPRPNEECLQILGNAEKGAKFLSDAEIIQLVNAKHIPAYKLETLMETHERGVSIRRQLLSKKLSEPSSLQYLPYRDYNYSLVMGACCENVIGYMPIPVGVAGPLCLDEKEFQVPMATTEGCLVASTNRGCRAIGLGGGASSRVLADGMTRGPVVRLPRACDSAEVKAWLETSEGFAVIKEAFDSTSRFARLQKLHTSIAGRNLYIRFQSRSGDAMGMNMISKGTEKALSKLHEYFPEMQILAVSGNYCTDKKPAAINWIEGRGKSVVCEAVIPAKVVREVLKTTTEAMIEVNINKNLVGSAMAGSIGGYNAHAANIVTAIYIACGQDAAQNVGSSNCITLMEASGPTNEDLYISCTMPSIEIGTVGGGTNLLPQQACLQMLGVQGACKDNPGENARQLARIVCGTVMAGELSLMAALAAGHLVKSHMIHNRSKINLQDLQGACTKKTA
Put plainly: HMG-CoA reductase inhibitory activity test in vitro. It is filed as biochemical. As to the method: Add 25 μL HMG-CoA reductase water solution (0.2 U/mL), 25 μL NADPH water solution (0.2 U/mL) and 24 μL phosphate buffer (50 mM, pH 7.0) into 1 μL different concentration of the above test solution. The mixed solution is standed for 10 min at room temperature, and then 25 μL HMG-CoA is added into the mixed solution. After the solution is incubated at 37∞ for 30 min and centrifuged at 5000 rpm for 5 minutes, 80 uL supernatant is added into 96-well plates and the absorbance is detected at 550 nm.
as §1

Test [1] deals with T4, protein tyrosine phosphatase 1B (PTP-1B) (Homo sapiens, UniProt P18031).
T4 sequence (P18031 1-435): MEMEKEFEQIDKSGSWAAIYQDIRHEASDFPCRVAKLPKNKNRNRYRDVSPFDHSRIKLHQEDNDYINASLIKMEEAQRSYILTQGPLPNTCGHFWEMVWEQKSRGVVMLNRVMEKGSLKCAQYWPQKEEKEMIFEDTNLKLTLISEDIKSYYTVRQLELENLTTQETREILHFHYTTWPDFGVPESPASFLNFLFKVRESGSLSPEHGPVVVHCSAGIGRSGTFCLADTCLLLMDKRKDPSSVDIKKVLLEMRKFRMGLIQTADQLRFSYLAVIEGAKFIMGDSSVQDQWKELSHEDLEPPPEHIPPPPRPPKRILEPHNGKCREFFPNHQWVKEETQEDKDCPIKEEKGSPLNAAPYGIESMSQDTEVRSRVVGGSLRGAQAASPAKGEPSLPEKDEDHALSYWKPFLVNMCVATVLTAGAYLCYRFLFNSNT
Put plainly: PTP-1B inhibitory activity test in vitro. It is filed as biochemical. As to the method: Experimental procedure: the following reagents are added into 96-well plates in sequence and the mixture ratios of different groups are as followings: Test group: 50 μL compound solution+50 μL 170 μg/mL PTP-1B solution […] Blank group: 50 μL buffer solution+50 μL 170 μg/mL PTP-1B solution Background group: 50 μL compound solution+50 μL buffer solution After adding the reagents, the 96-well plate is […] for 10 min at room temperature to make the compound and the enzyme react completely. Add 50 μL 1 mM pNPP solution which is used as substrate and incubate the mixed solution at 37 °C for 30 min. Then add 50 μL 3M NaOH into each well of the plate to stop the reaction and the optical density is detected at […].

Another test has as its target aldose reductase (Homo sapiens, UniProt P15121). Nature of the test: aldose reductase inhibitory activity test in vitro. It is filed as biochemical. As to the method:
Experimental procedure: the following reagents are added into 96-well plates in sequence and the mixture ratios of different groups are as followings:
Test group: 10 μL compound solution+25 μL (0.1 mM) NADPH solution+25 μL PBS buffer solution+15 μL aldose reductase diluent
Blank group: 25 μL (0.1 mM) NADPH solution+35 μL PBS buffer solution+15 μL aldose reductase diluent
Background group: 25 μL (0.1 mM) NADPH solution+60 μL PBS buffer solution+15 μL aldose reductase diluent
After adding the reagents, the 96-well plate is standed for 10 min at room temperature to make the compound and the enzyme react completely. Add 25 μL 10 mM D, L glyceraldehyde solution which is used as substrate into the groups except for background group, and incubate the solution at 37 °C for 30 min. Then detect the optical density of each well at 340 nm.

The test system of test [2] is hyperglycemia KK-A^y mice. Put plainly: blood sugar of hyperglycemia KK-A^y mice. The settings on record: metformin 8 g/kg, group 11. The arrangement: blood sugar: unit not given here. It is filed as in vivo. As to the method: (§2) Materials: accurately weigh the 2 compounds S13 and S28 discussed in example 2, and then add 0.5% CMC-Na to make the solution of 5 mg/ml used for activity test. KK-A^y mice are purchased from Chinese Academy of Medical Sciences & Peking Union Medical College Institute of Animal Studies. Experiments are carried out after adapting to the environment (T=20-24° C., constant humidity: 50-60%, 12 hours light exposure (8:00-20:00), soundproof, free feeding and drinking) for 1 week. Glucometer is purchased from Roche.
(§3) Methods: 10 male C57 mice of 6-8 weeks of 20-22 g are used as normal control group (1). Detect the fasting glucose of male KK-A^y mice, which are 6-8 weeks with the weight of 28-32 g, and divide them into different groups according to the blood sugar level and body weight: (2) model control group, (3) which is administered by compound S13 with the dose of 1 mg/kg, (4) which is administered by compound S13 with the dose of 5 mg/kg, (5) which is administered by compound S13 with the dose of 10 mg/kg, (6) which is administered by compound S13 with the dose of 20 mg/kg, (7) which is administered by compound S28 with the dose of 1 mg/kg, (8) which is administered by compound S28 with the dose of 5 mg/kg, (9) which is administered by compound S28 with the dose of 10 mg/kg, (10) which is administered by compound S28 with the dose of 20 mg/kg, (11) which is administered by metformin with the dose of 8 g/kg, (12) which is administered by compound S13 with the dose of 2.5 mg/kg and metformin with the dose of 4 g/kg, (13) which is administered by compound S13 with the dose of 5 mg/kg and metformin with the dose of 4 g/kg, (14) which is administered by compound S28 with the dose of 2.5 mg/kg and metformin with the dose of […], (15) which is administered by compound S28 with the dose of 5 mg/kg and metformin with the dose of […]. Each group has 8 mice, and is administrated successively for 3 weeks. Model control group is given with equal amounts of 0.5% CMC-Na.
1) Effects of drugs on blood sugar: at the first day after administration, the mice are fasted for 2 hours and blood is collected (0 h) to detect the fasting blood sugar. After the compound is given to the mice by intragastric administration for 30 min, blood is collected from tip of tail to detect the blood sugar level.
(§4) 2) Effects on body weight and blood sugar: the body weight of mice are recorded at the 2th, 5th, 8th, 11th, 14th, 17th, 20th day after administration, and blood is collected from tip of tail to detect the blood sugar level (see table 10).

Test [3] has as its system hyperglycemia KK-A^y mice. Nature of the test: blood lipid and liver function of hyperglycemia KK-A^y mice. It is filed as in vivo. The settings on record: 3 weeks, metformin 8 g/kg, group 11. As to the method:
as §2, §3
4) After the last administration, the mice are executed under anesthesia, and blood is taken to be centrifuged at 3000 rpm in 4[…]. Serum total cholesterol, low density lipoprotein and triglyceride TG are detected.

Test [4] relates to hyperglycemia KK-A^y mice. Nature of the test: glucose tolerance test (OGTT) in hyperglycemia KK-A^y mice. It is filed as in vivo. The settings on record: OGTT 12th day, glucose 2.0 g/kg oral, metformin 8 g/kg, group 11. As to the method:
KK-A^y mice are purchased from Chinese Academy of Medical Sciences & Peking Union Medical College Institute of Animal Studies. Experiments are carried out after adapting to the environment (T=20-24° C., constant humidity: 50-60%, 12 hours light exposure (8:00-20:00), soundproof, free feeding and drinking) for 1 week. Glucometer is purchased from Roche.
Each group has 8 mice, and is administrated successively for 3 weeks. Model control group is given with equal amounts of 0.5% CMC-Na.
3) Glucose tolerance test (OGTT): glucose tolerance is detected at the 12th day after administration. The mice are fasted for 12 hours and blood is collected (0 h). After being given with glucose (2.0 g/kg) by oral administration, blood is collected from tip of tail to detect the blood sugar level after 30 min, 60 min and 120 min respectively (see table 11).

A short description of test [5]: body weight of hyperglycemia KK-A^y mice. It is filed as in vivo. The settings on record: metformin 8 g/kg, group 11. As to the method:
as §2, §3, §4

Setting [6] is: read-out: α-glucosidase inhibitory activity (IC50).

T1 sequence (P27487 whole entry, species assumed): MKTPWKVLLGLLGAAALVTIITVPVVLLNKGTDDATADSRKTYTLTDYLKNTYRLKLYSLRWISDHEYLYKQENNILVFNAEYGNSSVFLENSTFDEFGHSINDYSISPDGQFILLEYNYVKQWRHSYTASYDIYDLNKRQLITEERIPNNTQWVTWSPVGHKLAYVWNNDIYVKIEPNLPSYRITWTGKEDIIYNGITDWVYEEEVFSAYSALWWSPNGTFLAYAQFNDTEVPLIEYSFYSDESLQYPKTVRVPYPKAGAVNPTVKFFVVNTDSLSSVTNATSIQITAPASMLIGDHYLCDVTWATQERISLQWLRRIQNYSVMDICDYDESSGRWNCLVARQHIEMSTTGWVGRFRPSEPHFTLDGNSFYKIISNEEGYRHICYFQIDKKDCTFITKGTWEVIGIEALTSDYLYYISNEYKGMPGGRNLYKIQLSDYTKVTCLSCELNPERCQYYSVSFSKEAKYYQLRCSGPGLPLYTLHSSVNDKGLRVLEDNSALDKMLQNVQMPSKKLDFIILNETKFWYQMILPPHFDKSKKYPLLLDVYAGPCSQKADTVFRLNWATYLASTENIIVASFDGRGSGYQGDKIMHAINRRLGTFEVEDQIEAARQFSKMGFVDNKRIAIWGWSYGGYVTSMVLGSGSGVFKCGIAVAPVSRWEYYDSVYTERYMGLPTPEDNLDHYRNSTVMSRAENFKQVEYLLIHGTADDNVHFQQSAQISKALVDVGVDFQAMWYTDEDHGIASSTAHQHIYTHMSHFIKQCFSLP

Turning to `C/C(C=O)=C\CC/C(C)=C/CC/C(=C/Cc1cc(O)ccc1O)C(=O)O` [S35, (2Z,5E,9E)-2-(2-(2,5-dihydroxyphenyl)ethylidene)-6,10-dimethyl-11-oxo undeca-5,9-dienoic acid], the IC50 against dipeptidyl peptidase-4 is 7.8 µM; on α-glucosidase, 12.3 µM; against HMG-CoA reductase it was 20.7 µM; in [1], 12.3 µM; at aldose reductase, 5.6 µM.
Consider `CC(C)=CCC/C(C)=C/CCC(CC(=O)c1cc(O)ccc1O)C(=O)O` (centres unmarked) [S36, (E)-2-(2-(2,5-dihydroxyphenyl)-2-oxoethyl)-6,10-dimethylundeca-5,9-dienoic acid], for which the IC50 on dipeptidyl peptidase-4 was 21.8 µM; on α-glucosidase, 3.2 µM; against HMG-CoA reductase it was 4.2 µM; in test [1], 11.4 µM; at aldose reductase, 6.3 µM.
For the compound `CC(C)=CCCC1=C[C@H](c2cc(O)ccc2O)OC1=O` [S37, (R)-5-(2,5-dihydroxyphenyl)-3-(4-methylpent-3-en-1-yl)furan-2(5H)-one], the IC50 against dipeptidyl peptidase-4 was found to be 15.4 µM; at α-glucosidase (setting [6]) it was 1.32 µM; at HMG-CoA reductase, 65.2 µM; in test [1], 12.3 µM; at aldose reductase, 12.6 µM.
On the same counts, the results for `CC(C)=CCCC1=C[C@@H](c2cc(O)ccc2O)OC1=O` [S38, (S)-5-(2,5-dihydroxyphenyl)-3-(4-methylpent-3-en-1-yl)furan-2(5H)-one] are 12.9 µM, 1.23 µM, 12.5 µM, 9.8 µM and 67.5 µM.
On to `CN(C)C(=N)N=C(N)N` [metformin, reference compound], for which the “blood sugar at the 1st day, 0” value in test [2] (1st day 0 h) is 14.9. Further, in test [2] (1st day 30 min after intragastric administration), the “blood sugar at the 1st day, 30 min” value worked out at 9.85. Moreover, the blood sugar is reported as 13.05 in [2] (2st day); 13.9 in test [2] (5st day); 13.8 in [2] (8st day); 13.5 in test [2] (11st day); 13.7 in [2] (14st day); 13.5 in test [2] (17st day). In test [2] (20st day), this compound came in with a blood sugar of 13.24. Besides, the ALT in [3] amounted to 89.6 U/L. In addition, the AST in [3] amounted to 137.5 U/L. In [3], this compound came in with an HDL-C of 23.1 mg/dL. In test [3], this compound came in with an LDL-C of 72 mg/dL. Further, in test [3], the SOD came to 3.7 U/L. For the same compound, the TC in test [3] is on record as 176* mg/dL. The TG in test [3] is 578 mg/dL. Also, the “glucose tolerance, blood sugar 0 min” value in test [4] (0 min) is recorded as 6.5**. In addition, the “glucose tolerance, blood sugar 30 min” value in test [4] (30 min) is 12.8**. The “glucose tolerance, blood sugar 60 min” value in test [4] (60 min) is given as 10.47**. Also, the “glucose tolerance, blood sugar 120 min” value in [4] (120 min) is 7.41**. In addition, the Body weight in test [5] (2st day) came to 30.7 g; in test [5] (5st day), 30.53 g; in [5] (8st day) it was 30.8 g; in [5] (11st day), 30.6 g; in test [5] (14st day) it was 30.7 g; in test [5] (17st day) it was 30.8 g. Besides, in test [5] (20st day), the Body weight was found to be 30.5 g.
